Here are results for one compound from ChEMBL document CHEMBL5726851, “2-oxo-imidazopyridines as reversible BTK inhibitors and uses thereof” (2019).

The target in this assay is Tyrosine-protein kinase BTK (Homo sapiens, UniProt Q06187). Briefly: Microfluidic Off-Chip Mobility Shift Assay Protocol for Potency Assessment Against BTK Enzyme: Briefly, 2.5× stocks of full-length human BTK (08-080) from CarnaBio USA, Inc., Natick, Mass., 1.6×ATP and appropriate kinKDR peptide substrate (FITC-AHA-[…]-NH2; developed in-house) were prepared in kinase reaction buffer consisting of 25 mM MgCl2, 0.015% Brij-35 (30%), 100 mM HEPES, pH 7.5, and 10 mM DTT. 5 uL of enzyme buffer and 7.5 uL of ATP/kinKDR peptide substrate mix were added to Matrix (#115304) 384-well, sterile, polypropylene plates (Thermo Fisher Scientific, Hudson, N.H.) with 125 nL of serially diluted compounds prepared in 100% DMSO, and incubated for 90 min. at 27° C. Following the incubation period, reactions were stopped by adding 60 uL stop buffer consisting of 100 mM HEPES, pH 7.5, 0.015% Brij-35 (30%), 0.277% Coating Reagent #3 (Caliper Life Sciences, Mountain View, Calif.), 5% DMSO. Stopped reactions were monitored at −2 PSI, −3000 V/−700 V in a LabChip 3000 plate reader from Caliper Life Sciences, a PerkinElmer Company (Hopkinton, Mass.), and the activity was measured by off-chip mobility shift assay measuring the charge/mass difference between substrate and product resulting from peptide phosphorilation. IC50 and efficacy were determined by plotting log [Inhibitor] vs. % Activity in GeneData Screener (Basel, Switzerland).

A value given as a limit tells only on which side of the number the result lay.

Sequence of Tyrosine-protein kinase BTK (Q06187 whole entry): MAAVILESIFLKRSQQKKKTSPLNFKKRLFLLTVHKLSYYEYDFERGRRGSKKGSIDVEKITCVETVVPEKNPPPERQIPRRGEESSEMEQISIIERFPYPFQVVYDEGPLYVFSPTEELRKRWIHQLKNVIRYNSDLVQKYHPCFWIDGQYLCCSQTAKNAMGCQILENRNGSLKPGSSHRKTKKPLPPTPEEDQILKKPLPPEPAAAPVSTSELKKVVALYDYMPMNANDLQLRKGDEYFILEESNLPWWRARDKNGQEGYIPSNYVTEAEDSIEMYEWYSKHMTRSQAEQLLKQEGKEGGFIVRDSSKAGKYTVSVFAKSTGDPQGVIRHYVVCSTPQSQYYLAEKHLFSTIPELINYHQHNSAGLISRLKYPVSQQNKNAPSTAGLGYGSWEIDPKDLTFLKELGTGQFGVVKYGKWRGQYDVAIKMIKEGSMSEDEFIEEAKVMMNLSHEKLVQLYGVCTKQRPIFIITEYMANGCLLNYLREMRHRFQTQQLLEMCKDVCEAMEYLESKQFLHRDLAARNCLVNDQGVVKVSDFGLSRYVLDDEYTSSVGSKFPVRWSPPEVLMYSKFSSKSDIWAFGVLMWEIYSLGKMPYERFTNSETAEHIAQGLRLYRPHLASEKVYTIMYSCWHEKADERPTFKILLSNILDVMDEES

Regarding `CC(C)(C)c1cc(C(=O)NC2CCCCc3cc(-c4ccnc5[nH]c(=O)[nH]c45)ccc32)on1` (stereo unspecified), the IC50 (commonly the concentration needed to halve the response being measured) is less than 10 nM.
